Results published in patent publication US20170232083A1, “METHODS OF DIAGNOSIS AND TREATMENT OF CELIAC DISEASE IN CHILDREN” (priority 2014, published 2017).

System: PBMC (polyclonal gluten-specific T cells) of paediatric and adult CD patients
Assay: IFN-γ ELISpot of PBMC after 3 day oral wheat challenge (SFU, % of maximal peptide response, dominance scores, EC50; Examples 5-6)
Type: cell-based, human
Conditions: for Cross-reactive T cell response: following wheat challenge; for IFN-γ ELISpot response: after oral wheat challenge
[1] = subject I (3-5yrs/6-10yrs part)
[2] = subject J (3-5yrs/6-10yrs part)
[3] = subject K (3-5yrs/6-10yrs part)
[4] = subject V (3-5yrs/6-10yrs part)
[5] = subject W (3-5yrs/6-10yrs part)
[6] = subject Y (3-5yrs/6-10yrs part)
[7] = subject five (3-5yrs/6-10yrs part)
[8] = subject seven (3-5yrs/6-10yrs part)
[9] = subject six (3-5yrs/6-10yrs part)
[10] = subject ten (3-5yrs/6-10yrs part)
[11] = subject two (3-5yrs/6-10yrs part)

PEQPFQPEQPFPQQ was tested, and the “Cross-reactive T cell response” value (subject A, 11-17yrs) was 2 SFU, the “Cross-reactive T cell response” value (subject D, 11-17yrs) was 1 SFU and the “Significant response as a percentage of maximal peptide SFU” value (shortened to “Significant response as a percentage”) (subject E, 11-17yrs) was “(6-10% - ^)”. For the same sequence, the “Cross-reactive T cell response” value (subject E, 11-17yrs) was 12 SFU, the “Cross-reactive T cell response” value (subject F, 11-17yrs) was 6 SFU and the “Cross-reactive T cell response” value (subject G, 11-17yrs) was 5 SFU. The “Cross-reactive T cell response” value (subject H) was 3 SFU, the “Cross-reactive T cell response” value [1] was 1 SFU and the “Significant response as a percentage” value (subject J) was “′ (11-20% = ′)”. For the same sequence, the “Cross-reactive T cell response” value [2] was 31 SFU, the “Cross-reactive T cell response” value [3] was 8 SFU and the “Cross-reactive T cell response” value (subject P, 11-17yrs) was 9 SFU. The “Cross-reactive T cell response” value (subject Q, 11-17yrs) was 7 SFU, the “Significant response as a percentage” value (subject T, 11-17yrs) was “′ (11-20% = ′)” and the “Cross-reactive T cell response” value (subject T, 11-17yrs) was 11 SFU. For the same sequence, the “Cross-reactive T cell response” value (subject U, 11-17yrs) was 6 SFU, the “Cross-reactive T cell response” value [4] was 7 SFU and the “Cross-reactive T cell response” value [5] was 3 SFU. The “Cross-reactive T cell response” value [6] was 1 SFU, the “Cross-reactive T cell response” value [7] was 3 SFU and the “Cross-reactive T cell response” value (subject nine, 11-17yrs) was 0 SFU. For the same sequence, the “Cross-reactive T cell response” value [8] was 7 SFU, the “Cross-reactive T cell response” value [9] was 2 SFU and the “Significant response as a percentage” value (subject ten) was “+ (>70% = +)”. The “Cross-reactive T cell response” value [10] was 12 SFU and the “Cross-reactive T cell response” value [11] was 6 SFU.

In the case of PEQPQPFPEQPVPQQP, the “Cross-reactive T cell response” value (subject A, 11-17yrs) is reported as 3 SFU, the “Cross-reactive T cell response” value (subject D, 11-17yrs) is reported as 3 SFU and the “Cross-reactive T cell response” value (subject E, 11-17yrs) is reported as 4 SFU. For the same sequence, the “Cross-reactive T cell response” value (subject F, 11-17yrs) was 6 SFU, the “Cross-reactive T cell response” value (subject G, 11-17yrs) was 1 SFU and the “Cross-reactive T cell response” value (subject H) was 0 SFU. For the same sequence, the “Cross-reactive T cell response” value [1] was 0 SFU, the “Cross-reactive T cell response” value [2] was 7 SFU and the “Cross-reactive T cell response” value [3] was 4 SFU. For the same sequence, the “Cross-reactive T cell response” value (subject P, 11-17yrs) was 8 SFU, the “Cross-reactive T cell response” value (subject Q, 11-17yrs) was 6 SFU and the “Cross-reactive T cell response” value (subject T, 11-17yrs) was 5 SFU. For the same sequence, the “Cross-reactive T cell response” value (subject U, 11-17yrs) was 1 SFU, the “Cross-reactive T cell response” value [4] was 3 SFU and the “Cross-reactive T cell response” value [5] was 4 SFU. The “Cross-reactive T cell response” value [6] was 2 SFU, the “Cross-reactive T cell response” value [7] was 0 SFU and the “Cross-reactive T cell response” value (subject nine, 11-17yrs) was 0 SFU. The “Cross-reactive T cell response” value [8] was 4 SFU, the “Cross-reactive T cell response” value [9] was 2 SFU and the “Significant response as a percentage” value (subject ten) was “+ (>70% = +)”. The “Cross-reactive T cell response” value [10] was 11 SFU and the “Cross-reactive T cell response” value [11] was 3 SFU.

In the case of PEQTFPEQPQLPF, the “IFN-γ ELISpot response” value (patient A, 11-17 yrs, cut-off 10 SFU) is reported as 3 SFU, the “IFN-γ ELISpot response” value (patient E, H, 11-17 yrs, cut-off 10 SFU) is reported as 19 SFU and the “Significant response as percentage of maximal peptide SFU” value (“Significant response as percentage” below) (patient E, max peptide 224 SFU) is reported as “(6-10% = ^)”. The “IFN-γ ELISpot response” value (patient F, 11-17 yrs, cut-off 10 SFU) was 1 SFU, the “IFN-γ ELISpot response” value (patient G, 11-17 yrs, cut-off 10 SFU) was 15 SFU and the “Significant response as percentage” value (patient G, max peptide 15 SFU) was “+ (>70% = +)”. The “IFN-γ ELISpot response” value (patient H (HLA-DQ2.5 homozygote), 3-5yrs, cut-off 10 SFU) was 2 SFU, the “IFN-γ ELISpot response” value (patient H, 11-17 yrs, cut-off 10 SFU) was 9 SFU and the “IFN-γ ELISpot response” value (patient ID not given, 11-17 yrs, cut-off 10 SFU) was 0 SFU. For the same sequence, the “Significant response as percentage” value (patient J, max peptide 196 SFU) was “+ (>70% = +)”, the “Significant response as percentage” value (patient K, max peptide 53 SFU) was “′′′ (41-70% = ′′′)” and the “IFN-γ ELISpot response” value (patient N, 3-5yrs, cut-off 10 SFU) was 1 SFU. The “IFN-γ ELISpot response” value (patient P, 11-17 yrs, cut-off 21.6 SFU) was 4 SFU, the “IFN-γ ELISpot response” value (patient Q, 11-17 yrs, cut-off 10 SFU) was 2 SFU and the “IFN-γ ELISpot response” value (patient U, H, 11-17 yrs, cut-off 10 SFU) was 1 SFU. For the same sequence, the “IFN-γ ELISpot response” value (patient V, 6-10 yrs, cut-off 10 SFU) was 4 SFU, the “IFN-γ ELISpot response” value (patient Y, 6-10 yrs, cut-off 10 SFU) was 1 SFU and the “IFN-γ ELISpot response” value (patient eleven, 6-10 yrs, cut-off 10 SFU) was 0 SFU. The “IFN-γ ELISpot response” value (patient four, 3-5yrs, cut-off 10 SFU) was 0 SFU, the “IFN-γ ELISpot response” value (patient seven, 6-10 yrs, cut-off 10.5 SFU) was 4 SFU and the “IFN-γ ELISpot response” value (patient ten, 3-5yrs, cut-off 10 SFU) was 4 SFU. The “IFN-γ ELISpot response” value (patient three, 6-10 yrs, cut-off 10.5 SFU) was 179 SFU, the “IFN-γ ELISpot response” value (patient twelve, 11-17 yrs, cut-off 10 SFU) was 0 SFU and the “IFN-γ ELISpot response” value (patient two, 3-5yrs, cut-off 10 SFU) was 1 SFU.
